Laboratory results from patent US20210395210A1, “INHIBITION OF BACTERIAL CHAPERONIN SYSTEMS” (THE TRUSTEES OF INDIANA UNIVERSITY, priority 2018, published 2021).
Where two headings read alike, the source gives them in different places.

Key:
E. coli GroEL/ES = target: T1, E. coli GroEL/ES (Escherichia coli, UniProt P0A6F5); test: GroEL/ES-mediated dRho refolding assay; assay type: biochemical; conditions: for log(IC50) GroEL/ES-dRho Refolding: log of IC50 (μM scale), with standard deviation
T1 construct: made in house; host or cells: GroEL in E. coli DH5α; GroES in E. coli BL21 (DE3)
T1 sequence (P0A6F5 2-548): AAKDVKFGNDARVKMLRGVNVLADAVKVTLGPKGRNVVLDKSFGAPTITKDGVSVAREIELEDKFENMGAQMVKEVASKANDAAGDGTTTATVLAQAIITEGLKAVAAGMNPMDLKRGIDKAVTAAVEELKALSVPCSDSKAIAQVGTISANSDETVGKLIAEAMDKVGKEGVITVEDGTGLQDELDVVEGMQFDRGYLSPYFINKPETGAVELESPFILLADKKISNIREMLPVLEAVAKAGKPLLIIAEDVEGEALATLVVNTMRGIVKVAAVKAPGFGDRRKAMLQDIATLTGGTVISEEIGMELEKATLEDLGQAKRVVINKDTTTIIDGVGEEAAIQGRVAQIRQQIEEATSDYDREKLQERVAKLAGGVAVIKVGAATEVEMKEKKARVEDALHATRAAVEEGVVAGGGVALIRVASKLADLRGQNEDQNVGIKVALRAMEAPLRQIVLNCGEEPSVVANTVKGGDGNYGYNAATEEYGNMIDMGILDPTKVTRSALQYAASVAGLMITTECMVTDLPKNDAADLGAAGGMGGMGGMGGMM
Procedure: Reagent preparation: For this assay, five primary reagent stocks were prepared: 1) GroEUES-dRho binary complex stock; 2) ATP initiation stock; 3) thiocyanate enzymatic assay stock; 4) formaldehyde quench stock; 5) ferric nitrate reporter stock. Denatured rhodanese (dRho) was prepared by 3-fold dilution of rhodanese (Roche product #R1756, diluted to 10 mg/mL with H2O) with denaturant buffer (12 M Urea, 50 mM Tris-HCl, pH 7.4, and 10 mM DTT). Rhodanese was completely denatured by incubating at room temperature for 45 min. The binary complex solution was prepared by slowly adding the dRho stock to a stirring stock of concentrated GroEL in modified folding buffer (50 mM Tris-HCl, pH 7.4, 50 mM KCl, 10 mM MgCl2, 5 mM Na2S2O3, and 1 mM DTT). The solution was centrifuged at 16,000×g for 5 minutes, and the supernatant was collected and added to a solution of GroES in modified folding buffer to give final protein concentrations of 100 nM GroEL, 120 nM GroES, and 80 nM dRho. The binary complex stock was prepared immediately prior to use. For the ATP initiation stock, ATP solid was diluted into modified folding buffer to a final concentration of 2.0 mM. The thiocyanate enzymatic assay stock was prepared to contain 70 mM KH2PO4, 80 mM KCN, and 80 mM Na2S2O3 in water. The formaldehyde quench solution contained 30% formaldehyde in water. The ferric nitrate reporter stock contained 8.5% w/v Fe(NO3)3 and 11.3% v/v HNO3 in water.
Assay Protocol: First, 10 μL aliquots of the GroEL/ES-dRho complex stock were dispensed into clear, 384-well polystyrene plates. […] The chaperonin-mediated refolding cycle was initiated by addition of 10 μL of ATP stock (reagent concentrations during refolding cycle: 50 nM GroEL, 60 nM GroES, 40 nM dRho, 1 mM ATP, and compounds of 250 μM to 114 nM, 3-fold dilution series). After incubating for 45 minutes at 37° C. for the refolding cycle, 30 μL of the thiocyanate enzymatic assay stock was added and incubated for 60 min at R.T. for the refolded rhodenase enzymatic reporter reaction. The reporter reaction was quenched by adding 10 μL of the formaldehyde quench stock, and then 40 μL of the ferric nitrate reporter stock was added to quantify the amount of thiocyanate produced during the enzymatic reporter reaction, which is proportional to the amount of dRho refolded by GroEL/ES. After incubating at R.T. for 15 min, the absorbance by Fe(SCN)3 was measured at 460 nm using a Molecular Devices SpectraMax Plus384 microplate reader. A second set of baseline control plates were prepared analogously, but without GroEL/ES-dRho protein binary solution, to correct for possible interference from compound absorbance or turbidity. […] Results presented represent the averages of IC50 values obtained from at least quadriplicate (duplicate of duplicate) replicates.
After generating the compound library, we next employed a series of well-established biochemical assays to evaluate compound inhibitory effects against the GroEUES chaperonin system (See FIG. 6 and FIG. 7). We used E. coli GroEUES as the surrogate chaperonin system for refolding of the reporter enzymes malate dehydrogenase (MDH) and rhodanese (Rho). Briefly, binary complexes are formed between GroEL and denatured MDH or Rho, which are then refolded to their native states upon addition of ATP and the GroES co-chaperonin. Enzymatic activities of refolded native MDH or Rho act as coupled reporters of GroEUES refolding functions since in the presence of chaperonin inhibitors, no functional reporter enzymes are generated.

native Rho (rhodanese) = target: T2, native Rho (rhodanese) (Bos taurus, UniProt P00586); test: Counter-screen for inhibition of native rhodanese enzymatic activity; assay type: biochemical; conditions: for log(IC50) Native Rho Reporter: log of IC50 (μM scale), with standard deviation
T2 construct: purchased Roche (so in the source) R1756
T2 sequence (P00586 1-297): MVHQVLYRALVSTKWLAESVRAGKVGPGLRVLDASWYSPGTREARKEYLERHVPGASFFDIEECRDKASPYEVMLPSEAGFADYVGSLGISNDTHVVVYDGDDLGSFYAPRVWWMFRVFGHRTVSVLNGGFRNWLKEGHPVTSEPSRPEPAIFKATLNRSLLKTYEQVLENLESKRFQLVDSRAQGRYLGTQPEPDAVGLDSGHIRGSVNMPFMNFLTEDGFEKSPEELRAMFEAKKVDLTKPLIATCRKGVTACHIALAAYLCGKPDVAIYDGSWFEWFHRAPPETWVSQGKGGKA
Procedure: Reagent Preparations & Assay Protocol: Reagents were identical to those used in the GroEUES-dRho refolding assay described above; however, the assay protocol differed in the sequence of compound addition to the wells. Compounds were pin-transferred after the 60 minute incubation for the refolding cycle, but prior to the addition of the thiocyanate enzymatic assay stock. Thus, the refolding reactions were allowed to proceed for 60 min at 37° C. in the absence of test compounds, but the enzymatic activity of the refolded rhodanese reporter enzyme was monitored in the presence of test compounds (inhibitor concentration range during the enzymatic reporter reaction is 100 µM to 46 nM-3-fold dilutions). IC50 values for the rhodenase reporter enzyme were determined as described above. Results presented represent the averages of IC50 values obtained from at least quadriplicate (duplicate of duplicate) replicates.

in vitro = conditions: human
Procedure: HEK 293 cells were maintained in MEM medium (Corning Cellgro, 10-009 CV) supplemented with 10% FBS (Sigma, F2242). […] Cells at 80% confluence were harvested and diluted in growth medium, then 45 μL of the THLE-3 cells (1,500 cells/well) or HEK 293 cells (1,500 cells/well) were dispensed per well, and plates were sealed with “Breathe Easy” oxygen permeable membranes (Diversified Biotech) and incubated at 37° C., 5% CO2, for 24 h.

| Compound | IC50 (E. coli GroEL/ES) | log(IC50) GroEL/ES-dRho Refolding (E. coli GroEL/ES) | log(IC50) Native Rho Reporter (native Rho (rhodanese)) | IC50 (native Rho (rhodanese); read-out: Biochemical Assay IC50 Native Rho Reporter) | CC50 at 48 h (in vitro) | IC50 (E. coli GroEL/ES; read-out: Biochemical Assay IC50 GroEL/ES-dRho Refolding) | IC50 (native Rho (rhodanese)) |
| --- | --- | --- | --- | --- | --- | --- | --- |
| COc1ccccc1C(=O)Nc1ccccc1 [Compound 44, 2-Methoxy-N-phenylbenzamide] | > 100 µM | >2 | >2 | > 100 µM | > 100 µM |  |  |
| O=C(Nc1ccc(Oc2ccc(Cl)cc2)c(Cl)c1)c1cc(I)cc(I)c1O [Rafoxanide, rafoxanide, reference compound] |  | 0.34 ± 0.11 | >2 |  | 24 µM | 2.2 µM | > 100 µM |
| CN[C@H](CC(C)C)C(=O)N[C@H]1C(=O)N[C@@H](CC(N)=O)C(=O)N[C@H]2C(=O)N[C@H]3C(=O)N[C@H](C(=O)N[C@H](C(=O)O)c4cc(O)cc(O)c4-c4cc3ccc4O)[C@H](O)c3ccc(c(Cl)c3)Oc3cc2cc(c3O[C@@H]2O[C@H](CO)[C@@H](O)[C@H](O)[C@H]2O[C@H]2C[C@](C)(N)[C@H](O)[C@H](C)O2)Oc2ccc(cc2Cl)[C@H]1O [Vancomycin, vancomycin, reference compound] | > 100 µM | >2 | >2 |  | > 100 µM |  | > 100 µM |
